Experimental data from ChEMBL document CHEMBL2073743, “HMG-CoA reductase inhibitors (statins) characterized as direct inhibitors of P-glycoprotein” (Pharm Res, 2001).

Assays:
[1] = biological target: T1, ATP-dependent translocase ABCB1 (Homo sapiens, UniProt P08183); assay: TP_TRANSPORTER: inhibition of Rhodamine 123 transport in 3T3-G185 cells; format: functional, cell-based
[2] = biological target: T1, ATP-dependent translocase ABCB1; assay: TP_TRANSPORTER: inhibition of Daunorubicin transport in 3T3-G185 cells; format: functional, cell-based

T1 sequence (P08183 whole entry): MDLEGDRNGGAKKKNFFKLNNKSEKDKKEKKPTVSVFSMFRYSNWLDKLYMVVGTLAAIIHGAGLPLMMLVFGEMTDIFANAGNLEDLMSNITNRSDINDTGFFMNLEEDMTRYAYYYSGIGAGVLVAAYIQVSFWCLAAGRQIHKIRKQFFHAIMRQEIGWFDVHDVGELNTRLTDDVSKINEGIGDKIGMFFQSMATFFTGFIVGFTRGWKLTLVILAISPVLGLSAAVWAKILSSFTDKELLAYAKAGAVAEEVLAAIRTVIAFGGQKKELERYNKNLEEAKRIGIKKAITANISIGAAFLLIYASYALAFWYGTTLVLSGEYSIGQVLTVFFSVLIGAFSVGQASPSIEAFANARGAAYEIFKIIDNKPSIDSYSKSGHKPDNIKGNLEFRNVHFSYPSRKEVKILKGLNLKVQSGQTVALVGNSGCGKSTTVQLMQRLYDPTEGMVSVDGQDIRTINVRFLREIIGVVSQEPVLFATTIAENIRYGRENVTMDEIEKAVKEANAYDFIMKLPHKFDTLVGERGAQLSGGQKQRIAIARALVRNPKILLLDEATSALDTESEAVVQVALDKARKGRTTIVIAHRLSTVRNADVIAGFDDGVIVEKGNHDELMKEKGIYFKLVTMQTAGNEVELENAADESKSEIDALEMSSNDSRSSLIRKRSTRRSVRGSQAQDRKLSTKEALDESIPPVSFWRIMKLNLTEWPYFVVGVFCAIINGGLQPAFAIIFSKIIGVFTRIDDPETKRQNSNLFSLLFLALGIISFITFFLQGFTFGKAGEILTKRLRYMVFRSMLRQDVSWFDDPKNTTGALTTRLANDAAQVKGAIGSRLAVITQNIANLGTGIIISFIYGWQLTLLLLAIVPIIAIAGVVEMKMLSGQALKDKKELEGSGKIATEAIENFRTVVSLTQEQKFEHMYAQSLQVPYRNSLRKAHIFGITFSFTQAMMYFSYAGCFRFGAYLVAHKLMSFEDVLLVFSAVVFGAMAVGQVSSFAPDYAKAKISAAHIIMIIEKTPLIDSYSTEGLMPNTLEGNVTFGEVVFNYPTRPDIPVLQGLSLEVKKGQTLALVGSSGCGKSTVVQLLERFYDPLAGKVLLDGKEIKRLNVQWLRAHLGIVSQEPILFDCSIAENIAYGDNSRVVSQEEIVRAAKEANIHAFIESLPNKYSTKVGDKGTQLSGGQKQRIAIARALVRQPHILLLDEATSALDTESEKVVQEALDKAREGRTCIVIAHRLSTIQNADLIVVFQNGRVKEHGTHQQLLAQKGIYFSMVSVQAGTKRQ

With CC(C)c1c(C(=O)Nc2ccccc2)c(-c2ccccc2)c(-c2ccc(F)cc2)n1CC[C@@H](O)C[C@@H](O)CC(=O)O [ATORVASTATIN] the IC50 [1] was 307 µM and the IC50 [2] was 271 µM.
